Measured values taken from patent publication US11612607B2, “Fenoldopam topical formulations for treating skin disorders” (TARO PHARMACEUTICAL INDUSTRIES LTD., priority 2016, dated 2023).
“And” between values parts separate entries of the source, which are not always exact repeats. Identical values can stand only once. One block for each compound: values may come before it.

Legend:
[1] = Fenoldopam stability in solutions at different pH after 72 hours (Mass spectrometry); format: physicochemical
Protocol: FIGS. 1a-1e depict the effect of pH on fenoldopam stability. FIGS. 1a-e depict fenoldopam stability in solutions at different pH levels as determined by Mass Spectra (MS). Fenoldopam samples at a pH of 2.5 (FIG. 1a) and samples which were adjusted to a pH of 3.6 (FIG. 1b), 6.6 (FIG. 1c) and 7.2 (FIG. 1d) with NaOH were maintained for 72 hours, after which MS analysis was performed. FIG. 1e depicts the possible degradation products of fenoldopam obtained following exposure to a pH above 4.
Additional fenoldopam samples (Samples A3-D3) were maintained at a pH of 2.5, 3.6, 6.6 and 7.2 without adjustment back to pH 2.5 and were analyzed after 72 hours by HPLC at 225 nm and Mass spectrometry (MS).

TNF-α [2] = assay: First animal study: TNF-α in skin homogenates (ELISA); format: in vivo, BALB/c mice
From the text: (§1) The effect of topical compositions on the treatment of psoriasis has been tested in two animal studies. In both studies, typical features of psoriasis, namely erythema, scaling, and skin thickness, were induced by the application of 5% w/w imiquimod (IMQ) cream on the dorsal skin of BALB/c mice over a period of 6 consecutive days. Animals that developed psoriasis-like symptoms were used for studying the efficacy of the fenoldopam topical compositions. In the fenoldopam-treated groups, the animals received imiquimod only for the first two days. From the third day of the study, the animals received imiquimod and fenoldopam for the next four days. First Animal Study: The different treatment groups of mice used in the first animal study were as following: the SHAM group in the study represents mice which were shaven on the dorsal side without any treatment; negative control group represents the typical psoriatic model induced by imiquimod 5% (IMQ); positive control group represents the mice induced with psoriasis by imiquimod and then treated with the marketed steroid betamethasone valerate (IMQ BMV); and treatment groups represent the mice induced with psoriasis by imiquimod and then treated with a topical dose of 1 mg/cm^2 fenoldopam using different compositions of fenoldopam, such as solution (IMQ FD), water-washable ointment (IMQ WB 45/55), or anhydrous gel (IMQ AG BHT) compositions.
(§2) An IMQ-induced psoriasis model reproduces biochemical and histopathological parameters characteristic of human psoriatic lesions. Topical application of the IMQ cream increased levels of cytokines such as IL-23, TNF-α, and IL-17 in the treated skin tissues. The skin homogenates obtained from mice of different groups were analyzed using ELISA for quantification of IL-17, IL-23, and TNF-α, levels as the selected interleukins are the typical inflammatory markers of psoriasis. […] The effect of fenoldopam was as effective as the reference topical treatment with the marketed steroid.

IL-17 [3] = assay: First animal study: IL-17 in skin homogenates (ELISA); format: in vivo, BALB/c mice
From the text: as §1, §2

IL-23 [4] = assay: First animal study: IL-23 in skin homogenates (ELISA); format: in vivo, BALB/c mice
From the text: as §1, §2

[5] = Stability of fenoldopam in solution at different pH values (HPLC, UV detector 225 nm); format: physicochemical
Protocol: In order to evaluate the stability of fenoldopam in solutions maintained at various pHs above 4 and further solutions that were further adjusted back to an acidic pH, the following experiment was conducted. Fenoldopam mesylate was first dissolved in buffer phosphate at pH 2.5, in a concentration of 0.1 mg/mL (sample A). The solution was then divided into 5 samples:
Sample A: remains at pH 2.5
Sample B: pH was adjusted to pH 3.6 with NaOH.
Sample C: pH was adjusted to pH 6.6 with NaOH.
Sample D: pH was adjusted to pH 7.2 with NaOH.
Sample E: pH was adjusted to pH 9.3 with NaOH.
All samples were then analyzed by HPLC and UV detector at 225 nm. Table 1 represents the results obtained by the HPLC analysis conducted with the different fenoldopam samples.

IL-22 = assay: Second animal study: IL-22 in skin homogenates (ELISA); format: in vivo, BALB/c mice
From the text: as §1, with “In” for “The effect of topical compositions on the treatment of psoriasis has been tested in two animal studies. In”
(§3) The second animal study was conducted in order to test additional topical compositions of fenoldopam with different strengths (0.01%, 0.1% and 1% of fenoldopam), as well as the effect of systemic administration of fenoldopam. […]
(§4) The skin homogenates obtained from mice of the different groups were analyzed using ELISA for quantification of IL-17, IL-23, TNF-α, and IL-22 levels, as the selected interleukins are the typical inflammatory markers of psoriasis.

[6] = tested on: IMQ-induced psoriasis model; assay: Second animal study: IMQ-induced psoriasis, phenotype and PASI scoring; format: in vivo, BALB/c mice
From the text: as §1, with “In” for “The effect of topical compositions on the treatment of psoriasis has been tested in two animal studies. In”
as §3

TNF-α [7] = assay: Second animal study: TNF-α in skin homogenates (ELISA); format: in vivo, BALB/c mice
From the text: as §1, with “In” for “The effect of topical compositions on the treatment of psoriasis has been tested in two animal studies. In”
as §3, §4

IL-23 [8] = assay: Second animal study: IL-23 in skin homogenates (ELISA); format: in vivo, BALB/c mice
From the text: as §1, with “In” for “The effect of topical compositions on the treatment of psoriasis has been tested in two animal studies. In”
The second animal study was conducted in order to test additional topical compositions of fenoldopam with different strengths (0.01%, 0.1% and 1% of fenoldopam), as well as the effect of systemic administration of fenoldopam. The different groups of mice used in the second animal study were as following: the SHAM group in the study represents mice which were shaven on the dorsal side without any treatment; negative control group represents the typical psoriatic model induced by imiquimod 5% (IMQ); positive control group represents the mice induced with psoriasis by imiquimod and then treated with the marketed steroid betamethasone valerate (IMQ BMV); and treatment groups represent the mice induced with psoriasis by imiquimod and then treated with a topical dose of various compositions of fenoldopam: water-washable base (IMQ_WB45/55-0.01%, IMQ_WB45/55-0.1%, IMQ_WB45/55-1% or IMQ_WB45/55_1% No citric acid), or oleaginous ointment composition (IMQ_OB 0.01%, IMQ_OB 0.1% or IMQ_OB […]). An additional group of mice received systemic Fenoldopam by intraperitoneal injection (IMQ_FD_IP).
as §4

IL-17 [9] = assay: Second animal study: IL-17 in skin homogenates (ELISA); format: in vivo, BALB/c mice
From the text: as §1, with “In” for “The effect of topical compositions on the treatment of psoriasis has been tested in two animal studies. In”
as §3, §4

Stability by MS analysis ([1]; pH of 6.6 and 7.2, after 3 days): formation of several peaks after 3 days
RRT-0.9 (%) ([5]; Sample B1: pH 3.6 for 12 hours, then back to pH 2.5 for additional 5 hours): 0.9%
RRT-0.9 (%) ([5]; Sample B2: pH 3.6 for 12 hours, then back to pH 2.5 for additional 48 hours): 0.9%
RRT-0.9 (%) ([5]; Sample B3: pH 3.6 for 72 hours without adjustment back to pH 2.5): 1.0%
RRT-0.9 (%) ([5]; Sample B: pH 3.6 for 12 hours, 0.1 mg/mL, room temperature, protected from light): 0.9%
RRT-0.9 (%) ([5]; Sample C1: pH 6.6 for 12 hours, then back to pH 2.5 for additional 5 hours): 4.0%
RRT-0.9 (%) ([5]; Sample C2: pH 6.6 for 12 hours, then back to pH 2.5 for additional 48 hours): 4.0%
fenoldopam degraded ([5]; Sample C3: 72 hours at pH 6.6): 18%
RRT-0.9 (%) ([5]; Sample C3: pH 6.6 for 72 hours without adjustment back to pH 2.5): 17.5%
RRT-0.9 (%) ([5]; Sample C: pH 6.6 for 12 hours): 4.9%
RRT-0.9 (%) ([5]; Sample D1: pH 7.2 for 12 hours, then pH 2.5 for additional 5 hours): 11.6%
RRT-0.9 (%) ([5]; Sample D2: pH 7.2 for 12 hours, then back to pH 2.5 for additional 48 hours): 11.5%
fenoldopam degraded ([5]; Sample D3: 72 hours at pH 7.2): 50%
RRT-0.9 (%) ([5]; Sample D3: pH 7.2 for 72 hours without adjustment back to pH 2.5): 49.8%
RRT-0.9 (%) ([5]; Sample D: pH 7.2 for 12 hours): 15.8%
Fenoldopam, (%) ([5]; Sample E1: pH 9.3 for 12 hours, then pH 2.5 for additional 5 hours): 2%
Fenoldopam, (%) ([5]; Sample E2: pH 9.3 for 12 hours, then pH 2.5 for additional 48 hours): 2.2%
Fenoldopam, (%) ([5]; Sample E3: pH 9.3 for 72 hours without adjustment back to pH 2.5): No main peak
Fenoldopam, (%) ([5]; Sample E: pH 9.3 for 12 hours): No main peak
RRT-0.9 impurity ([5]; Samples B, B1, B2 (12 hours at pH 3.6, then pH 2.5) and B3 (72 hours at pH 3.6)): less than 1%
RRT-0.9 impurity ([5]; Samples C, C1 and C2 (12 hours at pH 6.6 followed by adjustment back to pH 2.5)): 4%
minor peak of fenoldopam ([5]; Samples E, E1, E2 and E3 (pH 9.3)): ~2%
Appearance of solution ([5]; pH 3.6): pH 3.6 - Clear
Appearance of solution ([5]; pH 6.6): pH 6.6 - yellowish
Appearance of solution ([5]; pH 7.2): pH 7.2 - yellowish
Appearance of solution ([5]; pH 9.3): pH 9.3- yellowish
Structure (SMILES): Oc1ccc(C2CNCCc3c2cc(O)c(O)c3Cl)cc1 (centres unmarked) [Fenoldopam, 6-chloro-2,3,4,5-tetrahydro-1-(4-hydroxyphenyl)-[1H]-3-benzazepine-7,8-diol, methane sulfonate]
Stability by MS analysis ([1]; pH of 2.5 and 3.6, after 3 days): stable after 3 days and showed a single peak
Level of TNF-α (TNF-α [2]; vs. IMQ group): inhibited
Level of IL-17 (IL-17 [3]; vs. IMQ group): inhibited
Level of IL-23 (IL-23 [4]; vs. IMQ group): inhibited

Structure (SMILES): CC(C)Cn1cnc2c(N)nc3ccccc3c21 [IMQ, imiquimod]
Increase in the TNF-α level compared to the SHAM group (TNF-α [2]; first animal study): 8.42 fold
Fold difference in IL-22 levels (↑, vs. Sham) (IL-22): 1.36 fold and 1.36 ↑ fold
PASI score for erythema, scaling, and thickness on the 6th day [6]: about 3
Elevation of IL-17 levels compared to the SHAM group (IL-17 [3]; first animal study): 5 fold
Increase of IL-23 levels compared to SHAM group (IL-23 [4]; first animal study): 2.30 fold
Fold difference in TNF-α levels (↑, vs. Sham) (TNF-α [7]): 2.08 fold and 2.08 ↑ fold
Fold difference in IL-23 levels (↑, vs. Sham) (IL-23 [8]): 1.55 fold and 1.55 ↑ fold
Fold difference in IL-17 levels (↑, vs. Sham) (IL-17 [9]): 1.63 fold and 1.63 ↑ fold
